Experimental data as given in publication PMC3663898 (Antiviral research, 2013).
In brackets after ≈: the same amount, converted by molar mass. Read-outs that look alike come from different tables or passages of the source.

Legend:
[1] = system: TCRV; assay: microbe, parasite or virus in culture; format: cell-based, Tacaribe virus (11573 strain); conditions: Mammarenavirus tacaribeense, Huh7.5, 48 h; for EC50: read-out: TARV EC50; for EC90: read-out: TARV EC90
[2] = system: DENV; assay: microbe, parasite or virus in culture; format: cell-based, DENV (serotype 2, New Guinea C); conditions: Dengue virus, BHK, 48 h; for EC50: read-out: DENV EC50; for EC90: read-out: DENV EC90
[3] = male, Sprague-Dawley, rat, in vivo
[4] = rat, in vivo; for rats with diarrhea: Sprague-Dawley, po, 200 mg/kg
[5] = in vivo; conditions: male, Sprague-Dawley, rat; for C0 / clearance / Vd / half-life: iv
[6] = in vitro; conditions: bovine
[7] = in vitro; conditions: human
[8] = in vitro; conditions: hamster
[9] = system: CYP1A2, CYP2C9, CYP2C19, CYP2D6 and CYP3A4; assay: in vitro; conditions: human
[10] = physchem
[11] = in vitro; conditions: human, Caco-2

| Structure (SMILES) | EC50 [1] | EC90 [1] | EC50 [2] | EC90 [2] | F PO [3] | AUC IV ([3]; 5 mg/kg) | AUC PO ([3]; 25 mg/kg) | rats with diarrhea [4] | adverse event at lower doses [4] | C0 ([5]; 5 mg/kg) | clearance ([5]; 5 mg/kg) | Tmax ([5]; po, 25 mg/kg) | CC50 [6] | CC50 [7] | CC50 [8] | IC50 [9] | Vd ([5]; 5 mg/kg) | half-life ([5]; 5 mg/kg) | solubility ([10]; pH 4, aqueous buffer) | solubility ([10]; pH 7.4, aqueous buffer) | further results |
| --- | --- | --- | --- | --- | --- | --- | --- | --- | --- | --- | --- | --- | --- | --- | --- | --- | --- | --- | --- | --- | --- |
| OC[C@@H]1[C@@H](O)[C@H](O)[C@@H](O)CN1CCCCCCOc1cc(F)ccc1F [IHVR11029, (2R,3R,4R,5S)-1-(6-(2,5-difluorophenoxy)hexyl)-2-(hydroxymethyl)piperidine-3,4,5-triol] | 3.3 ± 2.7 µM | 69 ± 37.7 µM | 0.75 ± 0.06 µM | 6.3 ± 3.5 µM | 92/ND/ND % | 1990/9180/ND/ND μg*h/mL | 1990/9180/ND/ND μg*h/mL | 50% | sign of GI stress, such as anogenital staining or soft stool | 1620 ng/mL | 42.3 mL/min/kg | 4.17 h | > 500 µM | > 500 µM | > 500 µM | > 10 µM |  |  |  |  |  |
| CC(C)(C)C(=O)N(CCCCCCN1C[C@H](O)[C@@H](O)[C@H](O)[C@H]1CO)C1CCCCC1 [IHVR17028, N-cyclohexyl-N-(6-((2R,3R,4R,5S)-3,4,5-trihydroxy-2-(hydroxymethyl)piperidin-1-yl)hexyl)pivalamide] | 0.26 ± 0.08 µM | 26.7 ± 20.9 µM | 0.3 ± 0.03 µM | 1.7 ± 0.8 µM |  | 1540/903/ND/ND μg*h/mL | 1540/903/ND/ND μg*h/mL | 100% | sign of GI stress, such as anogenital staining or soft stool | 1660 ng/mL | 55.7 mL/min/kg | 1.56 h | > 500 µM | > 500 µM | > 500 µM | > 10 µM | 3 L/kg | 0.88 h | 299 µM (≈ 128 µg/mL) | 311 µM (≈ 133 µg/mL) | Cmax ([5]; po, 25 mg/kg): 180 ng/mL; efflux ratio [11]: 31.7 |
| CC(C)(C)NC(=O)N(CCCCCCN1C[C@H](O)[C@@H](O)[C@H](O)[C@H]1CO)C1CCCCC1 [IHVR19029, 3-(tert-butyl)-1-cyclohexyl-1-(6-((2R,3R,4R,5S)-3,4,5-trihydroxy-2-(hydroxymethyl)piperidin-1-yl)hexyl)urea] | 0.74 ± 0.3 µM | 52.5 ± 38.9 µM | 1.25 ± 1.1 µM | 22.5 ± 10.6 µM | 4.6/71/133% | 1383/945/1839/983 μg*h/mL |  |  |  | 1790 ng/mL | 58.2 mL/min/kg |  | > 500 µM | > 500 µM | > 500 µM | > 10 µM | 3 L/kg | 1.2 h | 309 µM (≈ 137 µg/mL) | 303 µM (≈ 134 µg/mL) | AUC IM [3]: 1383/945/1839/983 μg*h/mL; AUC IP ([3]; ip, 5 mg/kg): 1383/945/1839/983 μg*h/mL; AUC PO ([3]; 75 mg/kg): 1383/945/1839/983 μg*h/mL; mortality or clinical signs (Balb/c mice, single dose IP or IM up to 200mg/kg, 9-day observation): No mortality or clinical signs were observed; weight loss and GI alterations (mouse, in vivo): No significant weight loss and GI alterations; Tmax [5]: 0.167 h; Cmax ([5]; im, 5 mg/kg): 1230 ng/mL; Tmax ([5]; im, 5 mg/kg): 0.1 h; Cmax ([5]; ip, 5 mg/kg): 1330 ng/mL; Tmax ([5]; ip, 5 mg/kg): 0.17 h; Cmax ([5]; po, 75 mg/kg): 260 ng/mL; Tmax ([5]; po, 75 mg/kg): 2.1 h; efflux ratio [11]: 34.2 |
